According to PubChem BioAssay AID2060888 (Molecular Pharmacology Branch, DTP, NCI, 2025):

Tested on: 695427-040-R-J1-PDC complex spheroid viability
Assay: Anticancer human tumor 695427-040-R-J1-PDC patient-derived colon adenocarcinoma cell line growth inhibition [RAS]
Details: for IC50: curve of first compound; for viability, T/C: stronger effect = lower value
Outline: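 Agents were tested in combination matrices in half-log decrements from a top concentration at or near clinical Cmax (10 microM if undetermined). Targets were multi-cell spheroids of tumour lines plus HUVEC and MSC stromal cells.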

[1] = second compound 0.000949 µM, first compound 0.00316 µM
[2] = second compound 0.000949 µM, first compound 0.01 µM
[3] = second compound 0.000949 µM, first compound 0.0316 µM
[4] = second compound 0.000949 µM, first compound 0.1 µM
[5] = second compound 0.000949 µM, first compound 0.316 µM
[6] = second compound 0.000949 µM, first compound 1 µM
[7] = second compound 0.003 µM, first compound 0.00316 µM
[8] = second compound 0.003 µM, first compound 0.01 µM
[9] = second compound 0.003 µM, first compound 0.0316 µM
[10] = second compound 0.003 µM, first compound 0.1 µM
[11] = second compound 0.003 µM, first compound 0.316 µM
[12] = second compound 0.003 µM, first compound 1 µM
[13] = second compound 0.00949 µM, first compound 0.00316 µM
[14] = second compound 0.00949 µM, first compound 0.01 µM
[15] = second compound 0.00949 µM, first compound 0.0316 µM
[16] = second compound 0.00949 µM, first compound 0.1 µM
[17] = second compound 0.00949 µM, first compound 0.316 µM
[18] = second compound 0.00949 µM, first compound 1 µM
[19] = second compound 0.03 µM, first compound 0.00316 µM
[20] = second compound 0.03 µM, first compound 0.01 µM
[21] = second compound 0.03 µM, first compound 0.0316 µM
[22] = second compound 0.03 µM, first compound 0.1 µM
[23] = second compound 0.03 µM, first compound 0.316 µM
[24] = second compound 0.03 µM, first compound 1 µM
[25] = second compound 0.0949 µM, first compound 0.00316 µM
[26] = second compound 0.0949 µM, first compound 0.01 µM
[27] = second compound 0.0949 µM, first compound 0.0316 µM
[28] = second compound 0.0949 µM, first compound 0.1 µM
[29] = second compound 0.0949 µM, first compound 0.316 µM
[30] = second compound 0.0949 µM, first compound 1 µM
[31] = second compound 0.3 µM, first compound 0.00316 µM
[32] = second compound 0.3 µM, first compound 0.01 µM
[33] = second compound 0.3 µM, first compound 0.0316 µM
[34] = second compound 0.3 µM, first compound 0.1 µM
[35] = second compound 0.3 µM, first compound 0.316 µM
[36] = second compound 0.3 µM, first compound 1 µM
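Also: viability read after seven days of drug exposure.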
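For viability, T/C in this document: 100% = DMSO vehicle control viability.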

Structure (SMILES): CCN1CCN(Cc2ccc(Nc3ncc(F)c(-c4cc(F)c5nc(C)n(C(C)C)c5c4)n3)nc2)CC1 + CCn1c(-c2cc(N3CCN(C)CC3)cnc2C(C)OC)c2c3cc(ccc31)-c1csc(n1)CC(NC(=O)C1CC1C)C(=O)N1CCCC(N1)C(=O)OCC(C)(C)C2
- IC50 (second compound 0.000949 µM): > 1 µM
- IC50 (second compound 0.003 µM): > 1 µM
- IC50 (second compound 0.00949 µM): > 1 µM
- IC50 (second compound 0.03 µM): 0.0753 µM
- IC50 (second compound 0.0949 µM): < 0.00316 µM
- IC50 (second compound 0.3 µM): < 0.00316 µM
- viability, T/C [1]: 94.2%
- viability, T/C [2]: 87.4%
- viability, T/C [3]: 95.4%
- viability, T/C [4]: 94.4%
- viability, T/C [5]: 92.8%
- viability, T/C [6]: 59.9%
- viability, T/C [7]: 97.9%
- viability, T/C [8]: 105%
- viability, T/C [9]: 95.7%
- viability, T/C [10]: 85.2%
- viability, T/C [11]: 83.3%
- viability, T/C [12]: 59.2%
- viability, T/C [13]: 105%
- viability, T/C [14]: 74.5%
- viability, T/C [15]: 84.2%
- viability, T/C [16]: 67.2%
- viability, T/C [17]: 67.8%
- viability, T/C [18]: 49.6%
- viability, T/C [19]: 65%
- viability, T/C [20]: 62.9%
- viability, T/C [21]: 45.4%
- viability, T/C [22]: 53.3%
- viability, T/C [23]: 47.6%
- viability, T/C [24]: 39.7%
- viability, T/C [25]: 51.9%
- viability, T/C [26]: 41.2%
- viability, T/C [27]: 50.4%
- viability, T/C [28]: 37%
- viability, T/C [29]: 44.4%
- viability, T/C [30]: 36.5%
- viability, T/C [31]: 37.4%
- viability, T/C [32]: 41.4%
- viability, T/C [33]: 38.6%
- viability, T/C [34]: 38.8%
- viability, T/C [35]: 42.6%
- viability, T/C [36]: 41.9%

Structure (SMILES): CC1(O)CCCC1n1c(=O)c(C(F)F)cc2cnc(NC3CCN(S(C)(=O)=O)CC3)nc21 (stereo not drawn) + CCn1c(-c2cc(N3CCN(C)CC3)cnc2C(C)OC)c2c3cc(ccc31)-c1csc(n1)CC(NC(=O)C1CC1C)C(=O)N1CCCC(N1)C(=O)OCC(C)(C)C2
- IC50 (second compound 0.000949 µM): > 10 µM
- IC50 (second compound 0.003 µM): > 10 µM
- IC50 (second compound 0.00949 µM): > 10 µM
- IC50 (second compound 0.03 µM): 4.61 µM
- IC50 (second compound 0.0949 µM): < 0.0316 µM
- IC50 (second compound 0.3 µM): < 0.0316 µM
- viability, T/C [3]: 112%
- viability, T/C [4]: 74.6%
- viability, T/C [5]: 93.8%
- viability, T/C [6]: 105%
- viability, T/C (second compound 0.000949 µM, first compound 3.16 µM): 114%
- viability, T/C (second compound 0.000949 µM, first compound 10 µM): 74.5%
- viability, T/C [9]: 87.3%
- viability, T/C [10]: 92.8%
- viability, T/C [11]: 91.8%
- viability, T/C [12]: 92.7%
- viability, T/C (second compound 0.003 µM, first compound 3.16 µM): 109%
- viability, T/C (second compound 0.003 µM, first compound 10 µM): 71%
- viability, T/C [15]: 95.7%
- viability, T/C [16]: 80.8%
- viability, T/C [17]: 85.2%
- viability, T/C [18]: 78.3%
- viability, T/C (second compound 0.00949 µM, first compound 3.16 µM): 81.8%
- viability, T/C (second compound 0.00949 µM, first compound 10 µM): 52%
- viability, T/C [21]: 62.4%
- viability, T/C [22]: 71.5%
- viability, T/C [23]: 59.1%
- viability, T/C [24]: 57.1%
- viability, T/C (second compound 0.03 µM, first compound 3.16 µM): 59.8%
- viability, T/C (second compound 0.03 µM, first compound 10 µM): 32.7%
- viability, T/C [27]: 44.2%
- viability, T/C [28]: 42.1%
- viability, T/C [29]: 50.3%
- viability, T/C [30]: 50.8%
- viability, T/C (second compound 0.0949 µM, first compound 3.16 µM): 50.9%
- viability, T/C (second compound 0.0949 µM, first compound 10 µM): 25.6%
- viability, T/C [33]: 40.5%
- viability, T/C [34]: 42%
- viability, T/C [35]: 41.2%
- viability, T/C [36]: 36.5%
- viability, T/C (second compound 0.3 µM, first compound 3.16 µM): 44.2%
- viability, T/C (second compound 0.3 µM, first compound 10 µM): 25.2%

Structure (SMILES): CCC(CC)c1cc(NC2CCC(N)C2)n2nccc2n1 (stereo not drawn) + C#Cc1c(F)ccc2cc(O)cc(-c3ncc4c(N5CC6CCC(C5)N6)nc(OCC56CCCN5CC(F)C6)nc4c3F)c12
- IC50 (second compound 0.0316 µM): 1.96 µM
- IC50 (second compound 0.1 µM): 1.89 µM
- IC50 (second compound 0.316 µM): 1.8 µM
- IC50 (second compound 1 µM): 1.6 µM
- IC50 (second compound 3.16 µM): 1.24 µM
- IC50 (second compound 10 µM): < 0.0316 µM
- viability, T/C (second compound 0.0316 µM, first compound 0.0316 µM): 102%
- viability, T/C (second compound 0.0316 µM, first compound 0.1 µM): 109%
- viability, T/C (second compound 0.0316 µM, first compound 0.316 µM): 110%
- viability, T/C (second compound 0.0316 µM, first compound 1 µM): 110%
- viability, T/C (second compound 0.0316 µM, first compound 3.16 µM): 5.99%
- viability, T/C (second compound 0.0316 µM, first compound 10 µM): 12.4%
- viability, T/C (second compound 0.1 µM, first compound 0.0316 µM): 95.5%
- viability, T/C (second compound 0.1 µM, first compound 0.1 µM): 90.5%
- viability, T/C (second compound 0.1 µM, first compound 0.316 µM): 108%
- viability, T/C (second compound 0.1 µM, first compound 1 µM): 101%
- viability, T/C (second compound 0.1 µM, first compound 3.16 µM): 6.65%
- viability, T/C (second compound 0.1 µM, first compound 10 µM): 13.9%
- viability, T/C (second compound 0.316 µM, first compound 0.0316 µM): 99.3%
- viability, T/C (second compound 0.316 µM, first compound 0.1 µM): 90.8%
- viability, T/C (second compound 0.316 µM, first compound 0.316 µM): 97.2%
- viability, T/C (second compound 0.316 µM, first compound 1 µM): 91.3%
- viability, T/C (second compound 0.316 µM, first compound 3.16 µM): 7.6%
- viability, T/C (second compound 0.316 µM, first compound 10 µM): 13.9%
- viability, T/C (second compound 1 µM, first compound 0.0316 µM): 76.9%
- viability, T/C (second compound 1 µM, first compound 0.1 µM): 70.5%
- viability, T/C (second compound 1 µM, first compound 0.316 µM): 76.8%
- viability, T/C (second compound 1 µM, first compound 1 µM): 82.1%
- viability, T/C (second compound 1 µM, first compound 3.16 µM): 6.13%
- viability, T/C (second compound 1 µM, first compound 10 µM): 17%
- viability, T/C (second compound 3.16 µM, first compound 0.0316 µM): 66.9%
- viability, T/C (second compound 3.16 µM, first compound 0.1 µM): 59.6%
- viability, T/C (second compound 3.16 µM, first compound 0.316 µM): 64.9%
- viability, T/C (second compound 3.16 µM, first compound 1 µM): 59.2%
- viability, T/C (second compound 3.16 µM, first compound 3.16 µM): 4.92%
- viability, T/C (second compound 3.16 µM, first compound 10 µM): 15.3%
- viability, T/C (second compound 10 µM, first compound 0.0316 µM): 40.6%
- viability, T/C (second compound 10 µM, first compound 0.1 µM): 43.7%
- viability, T/C (second compound 10 µM, first compound 0.316 µM): 43.6%
- viability, T/C (second compound 10 µM, first compound 1 µM): 38.2%
- viability, T/C (second compound 10 µM, first compound 3.16 µM): 1.94%
- viability, T/C (second compound 10 µM, first compound 10 µM): 7.42%

Structure (SMILES): Nc1ccn(C2OC(CO)C(O)C2(F)F)c(=O)n1 (stereo not drawn) + CCn1c(-c2cc(N3CCN(C)CC3)cnc2C(C)OC)c2c3cc(ccc31)-c1csc(n1)CC(NC(=O)C1CC1C)C(=O)N1CCCC(N1)C(=O)OCC(C)(C)C2
- IC50 (second compound 0.000949 µM): > 1 µM
- IC50 (second compound 0.003 µM): 0.524 µM
- IC50 (second compound 0.00949 µM): 0.593 µM
- IC50 (second compound 0.03 µM): 0.112 µM
- IC50 (second compound 0.0949 µM): < 0.00316 µM
- IC50 (second compound 0.3 µM): < 0.00316 µM
- viability, T/C [1]: 69.9%
- viability, T/C [2]: 97.5%
- viability, T/C [3]: 81.8%
- viability, T/C [4]: 69.3%
- viability, T/C [5]: 67%
- viability, T/C [6]: 54.2%
- viability, T/C [7]: 109%
- viability, T/C [8]: 88.6%
- viability, T/C [9]: 78.5%
- viability, T/C [10]: 66.2%
- viability, T/C [11]: 54.5%
- viability, T/C [12]: 44.2%
- viability, T/C [13]: 80%
- viability, T/C [14]: 77.7%
- viability, T/C [15]: 60.9%
- viability, T/C [16]: 58.5%
- viability, T/C [17]: 57.5%
- viability, T/C [18]: 45.3%
- viability, T/C [19]: 56.4%
- viability, T/C [20]: 63.1%
- viability, T/C [21]: 52.2%
- viability, T/C [22]: 47.1%
- viability, T/C [23]: 48.4%
- viability, T/C [24]: 37.5%
- viability, T/C [25]: 42.4%
- viability, T/C [26]: 47.1%
- viability, T/C [27]: 40.6%
- viability, T/C [28]: 36%
- viability, T/C [29]: 25.7%
- viability, T/C [30]: 30.1%
- viability, T/C [31]: 34.5%
- viability, T/C [32]: 40.1%
- viability, T/C [33]: 34.8%
- viability, T/C [34]: 33.1%
- viability, T/C [35]: 31.6%
- viability, T/C [36]: 26.5%
